As a reminder, the IC50 is the concentration that gives 50% inhibition.

Structures are written as SMILES. Some results are limits rather than exact numbers.

The experiment has as its target T1, CYP26 (Mus musculus, UniProt O55127).
T1 construct: tissue Xenotech; host or cells: liver microsomes of ATRA-treated mice
T1 sequence (O55127 1-497): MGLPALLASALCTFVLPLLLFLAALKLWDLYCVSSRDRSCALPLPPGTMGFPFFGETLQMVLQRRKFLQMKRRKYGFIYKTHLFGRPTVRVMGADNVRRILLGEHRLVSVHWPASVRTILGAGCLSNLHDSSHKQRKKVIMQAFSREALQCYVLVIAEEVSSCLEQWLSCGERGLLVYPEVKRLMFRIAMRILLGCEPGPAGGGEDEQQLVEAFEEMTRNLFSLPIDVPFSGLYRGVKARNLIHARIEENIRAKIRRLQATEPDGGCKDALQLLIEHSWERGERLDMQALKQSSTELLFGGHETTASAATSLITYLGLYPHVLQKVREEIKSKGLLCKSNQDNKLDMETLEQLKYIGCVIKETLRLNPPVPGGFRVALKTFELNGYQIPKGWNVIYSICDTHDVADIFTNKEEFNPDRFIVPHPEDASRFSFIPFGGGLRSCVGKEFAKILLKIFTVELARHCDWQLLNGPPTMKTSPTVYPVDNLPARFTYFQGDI
Put plainly: CYP26 inhibition: substrate depletion assay for ATRA metabolism in mouse microsomes. It is filed as biochemical. As for the experimental part: Serum Testosterone and PSA and Tumor Testosterone Analysis. Tumor tissue obtained from mice will be homogenized in phosphate buffer (pH 7.4, 0.1 M) and homogenates centrifuged at 2000 g for 20 min. Testosterone concentrations in the serum and in the clear tissue homogenate supernatant will be determined with the ELISA kit from R&D Systems (Catalog # KGR010). Serum PSA concentrations will be measured using a PSA ELISA kit with a serum dilution according to the manufacturers instructions. • c. Breast cancer. To test the efficacy of compounds embodied herein against breast cancer, nude mice carrying human breast cancer lines that are estrogen receptor and Aromatase positive will be used. Cells will be grown in vitro and 2 million will be inoculated in Matrigel (50:50 volume ratio of cells to Matrigel). Cells will be distributed by s.c. injection at the right and left flanks or at the orthotopic sitest in 6 to 8 week old athymic nude mice (BALB/c strain) or severe combined immunodeficient mice under anesthesia. Animals will be treated with compound for 4 weeks, at which point animals will be sacrificed and collect blood samples and tumor tissue for the determination of serum and tumor estrogen levels. Tumors will be excised and a portion will be fixed in formalin for subsequent histochemical and immuno-histochemical analysis. The remainder will be snap frozen in liquid nitrogen and stored at −80° C. • 12. CYP26 inhibition activity. A substrate depletion assay for ATRA metabolism in mouse microsomes is used. […] The assay is run in a 100 μL reaction volume and stopped with an equal volume of methanol. […] CYP17 inhibition assay: In vitro assays for CYP17 17α-hydroxylase and C17,20-lyase activity, assays using rat and dog testis microsomes and ELISA kits from commercial vendors for the detection of formed products are employed. Incubation of rat testis microsomes with the substrate progesterone (P4) results, through the CYP17 17α-hydroxylase and C17,20-lyase activities, in a marked production of androstenedione (AD) in a time and enzyme-concentration dependent manner. […] In another control, microsomes isolated from rat livers, which are known to express very little or no CYP17, are shown to be devoid of this activity. Assays are also used that determine the activity of 17α-hydroxylase activity using P4 as a substrate and detecting HOP4 as a product (using dog testis microsomes) and the activity of C17,20-lyase by using HOP4 as a substrate and AD as a product (rat testis microsomes). • 14. CYP19 inhibition assay: For in vitro assays of CYP19 aromatase activity, commercially available CYP19 enzyme preparations (e.g. BD Gentest Supersomes Catalog #456260) and assay kits (e.g. BD Gentest Catalog #459520) are employed according to the manufacturers instructions.
CYP26 inhibition. […] The assay was run in a 100 μL reaction volume and stopped with an equal volume of methanol. […] Other compounds of formula (I) are similarly potent, for example with an IC50 of 1.6 nM.
As to `CCC(CC)C(c1ccc2nc(-c3cccc(C(=O)O)c3)sc2c1)n1ccnc1` (stereo not drawn) [3-(6-(2-Ethyl-1-(1H-imidazol-1-yl)butyl)benzo[d]thiazol-2-yl)benzoic acid], the IC50 is less than 1000 nM.

In turn, `CCC(C(c1ccc2nc(NCc3cccc(C(=O)O)c3)sc2c1)n1ccnc1)N(C)C` (stereo not drawn) [Example 7, 3-(((6-(2-(Dimethylamino)-1-(1H-imidazol-1-yl)butyl)benzo[d]thiazol-2-yl)amino)methyl)benzoic acid] displayed an IC50 of less than 1000 nM.

Consider `CCC(C(c1ccc2nc(Nc3ccc(C(=O)O)cc3)sc2c1)n1ccnc1)N(C)C` (stereo not drawn) [Example 17, 4-((6-(2-(Dimethylamino)-1-(1H-imidazol-1-yl)butyl)benzo[d]thiazol-2-yl)amino)benzoic acid], for which the IC50 is less than 1000 nM.

Regarding `CCC(C(c1ccc2nc(NCC(C)(C)C(=O)O)sc2c1)n1ccnc1)N(C)C` (stereo not drawn) [Example 19, 3-((6-(2-(Dimethylamino)-1-(1H-imidazol-1-yl)butyl)benzo[d]thiazol-2-yl)amino)-2,2-dimethylpropanoic acid], the IC50 was less than 1000 nM.

For the compound `CCC(C(c1ccc2nc(NC(=O)CC(C)(C)C(=O)O)sc2c1)n1ccnc1)N(C)C` (stereo not drawn) [Example 20, 4-((6-(-2-(dimethylamino)-1-(1H-imidazol-1-yl)butyl)benzo[d]thiazol-2-yl)amino)-2,2-dimethyl-4-oxobutanoic acid], the half-maximal inhibitory concentration (IC50) was less than 1000 nM.

`CCC(C(c1ccc2nc(NC(=O)c3ccc(C(=O)O)cc3)sc2c1)n1ccnc1)N(C)C` (stereo not drawn) [Example 22, 4-((6-(2-(dimethylamino)-1-(1H-imidazol-1-yl)butyl)benzo[d]thiazol-2-yl)carbamoyl)benzoic acid] registered an IC50 of less than 1000 nM.

Regarding `CCC(C(c1ccc2nc(Oc3ccc(C(=O)O)cc3)sc2c1)n1ccnc1)N(C)C` (stereo not drawn) [Example 24, 4-((6-(2-(Dimethylamino)-1-(1H-imidazol-1-yl)butyl)benzo[d]thiazol-2-yl)oxy)benzoic acid], the IC50 was less than 1000 nM.

In the case of `CCC(C(c1ccc2nc(-c3ccc(C(=O)OC)cc3)sc2c1)n1ccnc1)N(C)C` (stereo not drawn) [Example 25, Methyl 4-(6-(2-(dimethylamino)-1-(1H-imidazol-1-yl)butyl)benzo[d]thiazol-2-yl)benzoate], the IC50 was less than 1000 nM.

Turning to `CCC(C(c1ccc2nc(-c3ccc(C(=O)O)cc3)sc2c1)n1ccnc1)N(C)C` (stereo not drawn) [Example 26, 4-(6-(2-(Dimethylamino)-1-(1H-imidazol-1-yl)butyl)benzo[d]thiazol-2-yl)benzoic acid], the IC50 is less than 1000 nM.

`CCC(CC)C(c1ccc2nc(-c3ccc(C(=O)OC)cc3)sc2c1)n1ccnc1` (stereo not drawn) [Example 29, Methyl 4-(6-(2-ethyl-1-(1H-imidazol-1-yl)butyl)benzo[d]thiazol-2-yl)benzoate] came in with a half-maximal inhibitory concentration (IC50) of less than 1000 nM.

Regarding `CCC(CC)C(c1ccc2nc(-c3ccc(C(=O)O)cc3)sc2c1)n1ccnc1` (stereo not drawn) [Example 30, 4-(6-(2-Ethyl-1-(1H-imidazol-1-yl)butyl)benzo[d]thiazol-2-yl)benzoic acid], the IC50 is less than 1000 nM.

For the compound `CCC(C(c1ccc2nc(NCc3ccc(C(=O)O)cc3)sc2c1)n1ccnc1)N(C)C` (stereo not drawn) [Example 35, 4-(((6-(2-(Dimethylamino)-1-(1H-imidazol-1-yl)butyl)benzo[d]thiazol-2-yl)amino)methyl)benzoic acid], the IC50 was less than 1000 nM.

As to `CCC(C(c1ccc2nc(Nc3cccc(C(=O)O)c3)sc2c1)n1ccnc1)N(C)C` (stereo not drawn) [Example 39, 3-((6-(2-(dimethylamino)-1-(1H-imidazol-1-yl)butyl)benzo[d]thiazol-2-yl)amino)benzoic acid], the IC50 is less than 1000 nM.

`CCC(C(c1ccc2nc(NC(=O)c3cccc(C(=O)O)c3)sc2c1)n1ccnc1)N(C)C` (stereo not drawn) [Example 41, 3-((6-(2-(dimethylamino)-1-(1H-imidazol-1-yl)butyl)benzo[d]thiazol-2-yl)carbamoyl)benzoic acid]: the IC50 was less than 1000 nM.

`CCC(C(c1ccc2nc(NC(=O)C3(C(=O)O)CCC3)sc2c1)n1ccnc1)N(C)C` (stereo not drawn) [Example 43, 1-((6-(2-(Dimethylamino)-1-(1H-imidazol-1-yl)butyl)benzo[d]thiazol-2-yl)carbamoyl)cyclobutanecarboxylic acid]: the IC50 is less than 1000 nM.

The values above are taken from patent US10414760B2, “Cytochrome P450 inhibitors and uses thereof” (ANGION BIOMEDICA CORP., priority 2016, dated 2019).
